According to patent publication US4474775A, “Pyrazol-4-yl phosphates and insecticidal and acaricidal use” (priority 1979, dated 1984):

How the values were obtained:
Laodelphax striatellus [1] = test: Effectiveness against Laodelphax striatellus, third-instar larvae, root dip (Testing Example 1 (a)); format: in vivo; conditions: 40 ppm emulsifiable concentrate dilution, root dip 2 hours, 28° C., 24 hours, read-out: Mortality (I)
Experimental: (§1) Testing Example 1: Effectiveness against Laodelphax striatellus
(a) A test compound was processed into an emulsifiable concentrate in accordance with the formulation of Example 6, followed by diluting with water to prepare a treating solution of a 40 ppm concentration. 2.5 ml of the treating solution was placed into a test tube (with 1.7 cm of diameter, 4 cm deep), in which three seedlings of a paddy-rice plant (on the 7th day after germination) were allowed to stand so their root portions were dipped into the solution for 2 hours. The seedlings were then transferred into a test tube having 1 ml water placed in the bottom, and ten third-instar larvae of Laodelphax striatellus were released. After allowing the test tube to stand in the room (28° C.) for 24 hours, the dead larvae were counted. The test is repeated twice, and the test results are tabulated, in terms of mortality, in Table 2 (I).

Laodelphax striatellus [2] = test: Effectiveness against Laodelphax striatellus, adults, dust on paddy-rice plant (Testing Example 1 (b)); format: in vivo; conditions: small brown planthopper, adults on dusted rice, 24 h
Experimental: as §1
(b) A test compound was processed into a dust preparation in accordance with the formulation of Example 8, and […] of the preparation was dusted on the potted paddy-rice plant (1/5,000 a) by the Berger Duster method. After dusting, leaves (15 cm long) of the paddy rice were cut off and were placed in a test tube containing 1 ml of water in the bottom, and ten adults of Laodelphax striatellus were released therein. After allowing the test tube to stand in the room (28° C.) for 24 hours, the dead insects were counted.

Tetranychus urticae = test: Effectiveness against Tetranychus urticae (Testing Example 4); format: in vivo; conditions: decrease rate grade, 500 ppm spray on kidney bean plant; for Efficacy grading, 2nd day: 2nd day after spraying; for Efficacy grading, 7th day: 7th day after spraying
Experimental: Testing Example 4: Effectiveness against Tetranychus urticae
A test compound was processed into an emulsifiable concentrate in accordance with the formulation of Example 6, and diluted with water (with Dyne®, spreading agent, as diluted 3000-fold) to prepare a 500 ppm aqueous solution. Ten female adults of Tetranychus urticae) were infected on the seedling of a kidney bean plant water-cultured in a polyethylene cup, and the cups were placed in a glass chamber (28° C.) for 24 hours, followed by spraying 20 ml of the aqueous solution on the kidney bean plant. After the sprayed cup was placed again in the glass chamber, the number of the adults and larvae living on the leaves was counted on the 2nd and 7th days after spraying. The test was repeated twice, and the test results are tabulated in Table 5 in terms of the efficacy grading as determined by calculating a decrease rate by the following equation:
Decrease rate (%)=[(number of mites tested-number of larvae living on the day of inspection)/(number of mites tested)]×100

Unaspis yanonensis = test: Effectiveness against Unaspis yanonensis (Testing Example 3); format: in vivo; conditions: 480 h, second-instar larvae, 500 ppm wettable powder suspension sprayed, 20th day after spraying
Experimental: Testing Example 3: Effectiveness of Unaspis yanonensis
A test compound was processed into a wettable powder in accordance with the formulation of Example 7, and was diluted with water (with Dyne®, spreading agent, as diluted 3000-fold) to prepare a 500 ppm aqueous suspension. 20 ml of the aqueous suspension was sprayed on second-instar larvae (10 to 50 of the number parasitized) of Unaspis yanonensis on a seedling of Citrus trifoliate (2 months after germination) being planted in a pot (9 cm in diameter). After the sprayed pot was transferred to a greenhouse (25° to 30°C.), adult insects were counted on the 20th day after spraying. Mortality (%) is calculated by the following equation: [formula]

Spodoptera litura = test: Effectiveness against Spodoptera litura (Testing Example 2); format: in vivo; conditions: second-instar larvae, 500 ppm spray on soybean, 28° C., 24 hours
Experimental: Testing Example 2: Effectiveness against Spodoptera litura
Twenty milliliters of a 500 ppm, water-diluted solution (with Dyne® Takeda Chem. Ind. Ltd., spreading agent, as diluted 3000-fold) of the test compound (the emulsifiable concentrate of Example 6) was sprayed on grown seedlings (10 days after germination) of soybean plant water-cultured in a polyethylene cup by the use of a spray gun (nozzle pressure of 1 kg/cm^2 gauge) in a spraying chamber. 2 hours after spraying, two main leaves of soybean plant were cut off and were placed into two cups (6 cm in diameter and 4 cm in depth), respectively, and ten second-instar larvae of Spodoptera litura were liberated. The cups were left in the room (28° C.) for 24 hours, and the dead larvae were counted.

[3] = Oral acute toxicity in mice (Toxicological Test); conditions: mouse, in vivo, five-week aged ddY-SLC strained male mice
Excerpt: Below tabulated are the oral acute toxicity values obtained with five-week aged, ddY-SLC strained male mice: […]

Row | SMILES | mortality at 40 µg/mL (Laodelphax striatellus [1]) [%] | Mortality (II) (Laodelphax striatellus [2]) [%] | Efficacy grading, 2nd day (Tetranychus urticae) | Efficacy grading, 7th day (Tetranychus urticae) | mortality at 500 µg/mL (Unaspis yanonensis) [%] | mortality at 500 ppm (Spodoptera litura) [%] | LD50 [3] [mg/kg]
1 | CCCSP(=O)(OCC)Oc1cnn(-c2cc(Cl)cc(Cl)c2)c1 (stereo not drawn) [compound 33] | 100 | 65 | 3 (Not less than 90) | 3 (Not less than 90) | 70 | 100 | > 300
2 | CCCOP(=S)(OCC)Oc1cnn(-c2ccccc2)c1 (stereo not drawn) [Compound No. 3] |  |  | 3 (Not less than 90) | 0 (Not more than 20) | 79 |  | > 300
3 | CCCSP(=S)(OCC)Oc1cnn(-c2cc(Cl)c(Cl)cc2Cl)c1 (stereo not drawn) [compound 43] | 85 | 40 | 3 (Not less than 90) | 3 (Not less than 90) |  | 100 | > 300
4 | CCCSP(=O)(OCC)Oc1cnn(-c2ccc(C)cc2C)c1 (stereo not drawn) [compound 35] |  |  | 3 (Not less than 90) | 3 (Not less than 90) | 82 | 100 | ~300
5 | CCCSP(=S)(OCC)Oc1cnn(-c2ccc(Cl)cc2)c1 (stereo not drawn) [Compound No. 17] | 100 | 35 | 3 (Not less than 90) | 3 (Not less than 90) |  | 100 | > 300
6 | CCCSP(=O)(OCC)Oc1cnn(-c2ccc(Cl)cc2Cl)c1 (stereo not drawn) [compound 29] | 95 | 30 | 3 (Not less than 90) | 3 (Not less than 90) | 97 | 100 | ~300
7 | CCCSP(=O)(OCC)Oc1cnn(-c2ccc(Cl)cc2)c1 (stereo not drawn) [Compound No. 16, O-ethyl-O-[1-(4-chlorophenyl)pyrazol-4-yl]-S-n-propyl phosphorothiolate] | 97 | 75 | 3 (Not less than 90) | 3 (Not less than 90) |  | 100 | > 300
8 | CCOP(=S)(OCC)Oc1cnn(-c2ccc(C)cc2C)c1 [compound 34] |  |  |  |  | 79 |  | > 300
9 | CCCSP(=O)(OCC)Oc1cnn(-c2cc(Cl)c(Cl)cc2Cl)c1 (stereo not drawn) [compound 42] | 100 | 40 | 3 (Not less than 90) | 3 (Not less than 90) |  | 100 | > 300
10 | CCCSP(=O)(OCC)Oc1cnn(-c2ccccc2Cl)c1 (stereo not drawn) [compound 12] |  |  | 3 (Not less than 90) | 3 (Not less than 90) | 71 | 100 | > 300
11 | CCCOP(=S)(OCC)Oc1cn(-c2ccccc2)nc1C(=O)OCC (stereo not drawn) [compound 6] | 97 | 70 |  |  |  |  | > 300
12 | COP(=S)(OC)Oc1cnn(-c2ccccc2)c1 [Compound No. 1] |  |  | 3 (Not less than 90) | 3 (Not less than 90) | 86 |  | > 300
13 | CCCSP(=S)(OCC)Oc1cnn(-c2ccc(OC)cc2)c1 (stereo not drawn) [compound 25] |  |  | 3 (Not less than 90) | 3 (Not less than 90) | 100 | 100 | > 300
14 | CCCSP(=O)(OCC)Oc1cnn(-c2ccc(Cl)cc2F)c1 (stereo not drawn) [compound 37] | 100 | 90 | 3 (Not less than 90) | 3 (Not less than 90) |  | 100 | > 300
15 | CCCSP(=O)(OCC)Oc1cnn(-c2ccccc2C)c1 (stereo not drawn) [compound 22] | 85 | 63 | 3 (Not less than 90) | 3 (Not less than 90) |  | 100 | ~300
16 | CCOP(=S)(OCC)Oc1cnn(-c2ccccc2)c1 [compound 2] |  |  |  |  | 75 |  | > 300
17 | CCCSP(=O)(OCC)Oc1cnn(-c2ccc(Br)cc2)c1 (stereo not drawn) [Compound No. 9] | 100 | 75 | 3 (Not less than 90) | 3 (Not less than 90) |  | 100 | > 300
18 | CCCSP(=O)(OCC)Oc1cnn(-c2ccc(I)cc2)c1 (stereo not drawn) [compound 20] | 100 | 65 | 3 (Not less than 90) | 3 (Not less than 90) |  | 100 | > 300
19 | CCCSP(=S)(OCC)Oc1cnn(-c2ccc(Cl)cc2Cl)c1 (stereo not drawn) [compound 30] |  |  | 3 (Not less than 90) | 3 (Not less than 90) |  | 100 | > 300
20 | CCCSP(=O)(OCC)Oc1cnn(-c2ccccc2)c1 (stereo not drawn) [Compound No. 4, O-ethyl-O-(1-phenylpyrazol-4-yl)-S-n-propylphosphorothiolate] |  |  | 3 (Not less than 90) | 3 (Not less than 90) | 84 | 100 | > 300
21 | CCCSP(=O)(OCC)Oc1cnn(-c2cccc(Cl)c2)c1 (stereo not drawn) [compound 13] | 100 | 90 | 3 (Not less than 90) | 3 (Not less than 90) |  | 100 | > 300
22 | CCCSP(=O)(OCC)Oc1cnn(-c2ccc(F)cc2)c1 (stereo not drawn) [compound 18] | 100 | 100 | 3 (Not less than 90) | 3 (Not less than 90) |  | 100 | > 300
23 | CCCSP(=O)(OCC)Oc1cnn(-c2ccc(CCC)cc2)c1 (stereo not drawn) [compound 24] | 85 | 50 | 3 (Not less than 90) | 3 (Not less than 90) |  | 100 | > 300
24 | CCCSP(=O)(OCC)Oc1cnn(-c2ccc(Cl)c(Cl)c2)c1 (stereo not drawn) [Compound No. 31, O-ethyl-O-[3,4-dichlorophenyl)pyrazol-4-yl]-S-n-propyl phosphorothiolate] | 100 | 90 | 3 (Not less than 90) | 3 (Not less than 90) | 75 | 100 | > 300
